Assay [1] addresses C-C chemokine receptor type 5 (Homo sapiens, UniProt P51681). Format: cell membranes, Membrane. Particulars: hek293.
A further assay concerns the target Cannabinoid receptor 1 (Homo sapiens, UniProt P21554). In kind it is cell membranes, Chem-1, Membrane. Conditions: chem-1. Further: in other assays of this panel Not Active means under 50% inhibition at 10 µM.
Assay [2] can be described thus: DRUGMATRIX: GABAA, Flunitrazepam, Central radioligand binding (ligand: [3H] Flunitrazepam). In kind it is cell membranes, Rattus norvegicus, Wistar, Brain, Membrane. Conditions: Not Active = under 50% inhibition at 10 µM.
In assay [3] the target is T1, Alpha-1A adrenergic receptor (Rattus norvegicus, UniProt P43140).
T1 sequence (P43140 whole entry): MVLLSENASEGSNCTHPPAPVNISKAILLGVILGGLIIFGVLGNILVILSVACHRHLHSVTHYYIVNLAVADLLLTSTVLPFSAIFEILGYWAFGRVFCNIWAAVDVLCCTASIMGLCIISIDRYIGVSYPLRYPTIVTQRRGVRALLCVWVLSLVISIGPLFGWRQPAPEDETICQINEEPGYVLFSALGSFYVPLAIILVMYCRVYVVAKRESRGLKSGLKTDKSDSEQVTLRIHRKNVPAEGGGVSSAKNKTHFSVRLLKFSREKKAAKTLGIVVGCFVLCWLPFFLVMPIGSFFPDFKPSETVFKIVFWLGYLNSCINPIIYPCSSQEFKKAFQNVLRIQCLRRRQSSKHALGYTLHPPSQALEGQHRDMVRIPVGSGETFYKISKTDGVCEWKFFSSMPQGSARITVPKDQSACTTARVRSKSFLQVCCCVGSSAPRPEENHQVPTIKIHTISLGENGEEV
Description: DRUGMATRIX: Alpha-1A adrenergic receptor radioligand binding (ligand: prazosin). In kind it is cell membranes, Wistar, Submaxillary gland, Membrane. Particulars: Not Active = under 50% inhibition at 10 µM.

For assay [4], the target named is Sodium-dependent noradrenaline transporter (Homo sapiens, UniProt P23975). Description: DRUGMATRIX: Norepinephrine Transporter radioligand binding (ligand: [125I] RTI-55). Format: cell membranes, MDCK, Membrane. Conditions: mdck; Not Active = under 50% inhibition at 10 µM.
Sequence of Sodium-dependent noradrenaline transporter (P23975 whole entry): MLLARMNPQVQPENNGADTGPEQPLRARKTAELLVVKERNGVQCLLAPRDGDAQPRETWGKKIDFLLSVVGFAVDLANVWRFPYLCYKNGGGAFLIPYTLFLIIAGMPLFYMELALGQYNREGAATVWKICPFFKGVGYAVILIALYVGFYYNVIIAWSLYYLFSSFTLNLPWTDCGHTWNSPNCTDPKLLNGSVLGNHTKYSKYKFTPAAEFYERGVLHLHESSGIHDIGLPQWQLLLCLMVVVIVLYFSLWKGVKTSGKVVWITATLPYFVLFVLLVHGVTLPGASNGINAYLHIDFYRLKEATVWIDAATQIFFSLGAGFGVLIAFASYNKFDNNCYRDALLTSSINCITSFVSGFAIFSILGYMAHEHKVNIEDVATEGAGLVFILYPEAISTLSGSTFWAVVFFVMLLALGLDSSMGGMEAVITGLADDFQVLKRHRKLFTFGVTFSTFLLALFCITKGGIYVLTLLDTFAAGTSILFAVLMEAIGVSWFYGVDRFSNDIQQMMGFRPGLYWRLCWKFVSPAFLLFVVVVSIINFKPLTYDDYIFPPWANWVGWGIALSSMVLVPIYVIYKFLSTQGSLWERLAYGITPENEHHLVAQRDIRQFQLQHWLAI
Assay [5] concerns the target T2, C-X-C chemokine receptor type 1 (Homo sapiens, UniProt P25024). Further: in other assays of this panel Not Active means under 50% inhibition at 10 µM.
T2 sequence (P25024 whole entry): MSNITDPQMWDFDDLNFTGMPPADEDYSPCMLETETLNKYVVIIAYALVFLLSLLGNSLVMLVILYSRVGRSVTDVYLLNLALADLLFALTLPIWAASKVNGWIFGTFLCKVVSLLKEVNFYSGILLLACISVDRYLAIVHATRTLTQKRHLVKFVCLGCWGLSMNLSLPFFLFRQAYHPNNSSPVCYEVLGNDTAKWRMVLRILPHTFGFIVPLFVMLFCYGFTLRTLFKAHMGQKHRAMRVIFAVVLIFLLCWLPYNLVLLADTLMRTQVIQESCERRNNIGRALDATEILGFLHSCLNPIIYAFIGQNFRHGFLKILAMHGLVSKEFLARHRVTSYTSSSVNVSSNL

Sequence of C-C chemokine receptor type 5 (P51681 whole entry): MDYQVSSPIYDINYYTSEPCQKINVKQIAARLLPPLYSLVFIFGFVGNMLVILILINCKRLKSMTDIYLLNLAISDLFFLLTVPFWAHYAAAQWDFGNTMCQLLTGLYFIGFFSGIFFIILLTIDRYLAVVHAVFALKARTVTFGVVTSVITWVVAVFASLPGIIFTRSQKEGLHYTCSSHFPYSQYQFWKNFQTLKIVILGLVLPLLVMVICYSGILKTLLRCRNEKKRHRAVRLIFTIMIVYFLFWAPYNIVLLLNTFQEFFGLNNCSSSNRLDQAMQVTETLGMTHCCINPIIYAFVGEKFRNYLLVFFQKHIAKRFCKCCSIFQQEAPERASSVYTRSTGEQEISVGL
Sequence of Cannabinoid receptor 1 (P21554 whole entry): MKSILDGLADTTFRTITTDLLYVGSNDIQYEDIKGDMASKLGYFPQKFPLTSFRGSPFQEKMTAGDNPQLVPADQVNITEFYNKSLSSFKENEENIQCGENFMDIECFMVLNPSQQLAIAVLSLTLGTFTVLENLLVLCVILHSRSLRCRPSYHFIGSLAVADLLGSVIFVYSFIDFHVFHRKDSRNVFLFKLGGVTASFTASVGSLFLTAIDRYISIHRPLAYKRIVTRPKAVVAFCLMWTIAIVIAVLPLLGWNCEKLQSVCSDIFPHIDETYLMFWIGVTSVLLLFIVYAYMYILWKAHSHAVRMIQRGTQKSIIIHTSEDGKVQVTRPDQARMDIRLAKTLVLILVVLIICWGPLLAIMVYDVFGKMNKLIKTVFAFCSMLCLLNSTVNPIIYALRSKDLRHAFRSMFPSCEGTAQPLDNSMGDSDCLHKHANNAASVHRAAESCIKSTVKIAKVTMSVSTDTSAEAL

A word on the IC50: it is the concentration that inhibits the measured activity by half. One may read the Ki as a dissociation constant, usually derived from enzyme kinetics or from competition with a known ligand. `O=c1cc(N2CCOCC2)oc2c(-c3ccccc3)cccc12` [LY-294002]: the IC50 entry in assay [1] was “Not Active”; at Cannabinoid receptor 1, “Not Active”; in assay [2] (read-out: IC50), 21400 nM; in assay [3], “Not Active”; in assay [4], “Not Active”; in assay [5], “Not Active”. Besides, the Ki in assay [2] (read-out: Ki) came out at 17400 nM.

Regarding `COc1cc(N)c(Cl)cc1C(=O)NC1CCN(CCCOc2ccc(F)cc2)CC1OC` (centres undefined) [CISAPRIDE], the IC50 result in assay [1] was “Not Active”; on Cannabinoid receptor 1 it was “Not Active”; in assay [2] it was “Not Active”; in assay [3] (read-out: IC50) it was 120 nM; in assay [4], “Not Active”; in assay [5], “Not Active”. Further, the results for the Ki entry in assay [2] and in assay [3] (read-out: Ki) were “Not Active” and 49 nM, respectively.

In the case of `N=C(N)NC(=O)Cc1c(Cl)cccc1Cl` [GUANFACINE], the IC50 entry in assay [1] is “Not Active”; at Cannabinoid receptor 1, “Not Active”; in assay [2] it was “Not Active”; in assay [3] (read-out: IC50) it was 1350 nM; in assay [4], “Not Active”; in assay [5], “Not Active”. In addition, the Ki result in assay [2] is “Not Active”; in assay [3] (read-out: Ki) it was 546 nM.

As for `NC(=O)C[S+]([O-])C(c1ccccc1)c1ccccc1` (centres undefined) [MODAFINIL], the IC50 entry (in assay [1]; at Cannabinoid receptor 1; in assay [2]; in assay [3]; in assay [4]; in assay [5]) was “Not Active” in each case. Besides, the Ki entry in assay [2] is “Not Active”.

On to `CC(C)(C)NC(=O)[C@H]1CC[C@H]2[C@@H]3CC[C@H]4NC(=O)C=C[C@]4(C)[C@H]3CC[C@]12C` [FINASTERIDE], for which the IC50 entry (in assay [1]; at Cannabinoid receptor 1; in assay [2]; in assay [3]; in assay [4]; in assay [5]) was “Not Active” throughout. Moreover, the Ki entry in assay [2] is listed as “Not Active”.

On to `CC(C)NNC(=O)c1ccncc1` [IPRONIAZID], for which the IC50 entry (in assay [1]; against Cannabinoid receptor 1; in assay [2]; in assay [3]; in assay [4]; in assay [5]) was “Not Active” each time. Further, the Ki result in assay [2] was “Not Active”.

On to GRAMICIDIN, for which the IC50 entry (in assay [1]; against Cannabinoid receptor 1; in assay [2]; in assay [3]; in assay [4]; in assay [5]) was “Not Active” in each case. The Ki entry (in assay [1]; at Cannabinoid receptor 1; in assay [2]; in assay [3]; in assay [4]; in assay [5]) was “Not Active” each time.

For `CC(=O)[C@@]1(O)CC[C@H]2[C@@H]3CCC4=CC(=O)CC[C@]4(C)[C@H]3CC[C@@]21C` [HYDROXYPROGESTERONE], the IC50 result (in assay [1]; against Cannabinoid receptor 1; in assay [2]; in assay [3]; in assay [4]; in assay [5]) was “Not Active” in each case. The Ki entry in assay [2] is “Not Active”.

Consider `O=C(N/N=C/c1ccc([N+](=O)[O-])o1)c1cc([N+](=O)[O-])cc([N+](=O)[O-])c1O` [NIFURSOL], for which the IC50 result (in assay [1]; against Cannabinoid receptor 1; in assay [2]; in assay [3]; in assay [4]; in assay [5]) was “Not Active” each time. Also, the Ki entry in assay [2] is given as “Not Active”.

For the compound `CC(C)NCC(O)COc1cccc2[nH]ccc12` (centres undefined) [PINDOLOL], the IC50 result (in assay [1]; against Cannabinoid receptor 1; in assay [2]; in assay [3]; in assay [4]; in assay [5]) was “Not Active” in each case. In addition, in assay [2], the Ki result is “Not Active”.

`Oc1cccc(O)c1O` [PYROGALLOL]: the IC50 entry (in assay [1]; at Cannabinoid receptor 1; in assay [2]; in assay [3]; in assay [4]; in assay [5]) was “Not Active” throughout. In addition, the Ki result in assay [2] is on record as “Not Active”.

On to `NNc1nncc2ccccc12` [HYDRALAZINE], for which the IC50 entry (in assay [1]; on Cannabinoid receptor 1; in assay [2]; in assay [3]; in assay [4]; in assay [5]) was “Not Active” throughout. Also, in assay [2], the inhibition constant (Ki) entry is “Not Active”.

Regarding `C[C@]12C=CC(=O)C=C1CC[C@@H]1[C@@H]2[C@@H](O)C[C@@]2(C)[C@H]1CC[C@]2(O)C(=O)CO` [PREDNISOLONE], the 50% inhibitory concentration (IC50) result (in assay [1]; on Cannabinoid receptor 1; in assay [2]; in assay [3]; in assay [4]; in assay [5]) was “Not Active” throughout. Further, the Ki entry in assay [2] was “Not Active”.

In the case of `NCCCC(O)(P(=O)(O)O)P(=O)(O)O` [ALENDRONIC ACID], the IC50 result (in assay [1]; against Cannabinoid receptor 1; in assay [2]; in assay [3]; in assay [4]; in assay [5]) was “Not Active” throughout. In assay [2], the Ki result is “Not Active”.

As for `O=C1O[C@H]([C@@H](O)CO)C(O)=C1O` [ASCORBIC ACID], the IC50 result (in assay [1]; on Cannabinoid receptor 1; in assay [2]; in assay [3]; in assay [4]; in assay [5]) was “Not Active” throughout. Further, the Ki result in assay [2] was “Not Active”.

Turning to `C[n+]1ccccc1/C=N/O.[Cl-]` [PRALIDOXIME CHLORIDE], the IC50 entry (in assay [1]; against Cannabinoid receptor 1; in assay [2]; in assay [3]; in assay [4]; in assay [5]) was “Not Active” throughout. The Ki entry in assay [2] is listed as “Not Active”.

Consider `COc1ccc2c3c1O[C@H]1C[C@@H](O)C=C[C@@]31CCN(C)C2` [GALANTAMINE], for which the IC50 result (in assay [1]; against Cannabinoid receptor 1; in assay [2]; in assay [3]; in assay [4]; in assay [5]) was “Not Active” each time. For the same compound, the Ki entry in assay [2] is listed as “Not Active”.

Turning to `COC1=C(OC)C(=O)C(CCCCCCCCCCO)=C(C)C1=O` [IDEBENONE], the IC50 result (in assay [1]; against Cannabinoid receptor 1; in assay [2]; in assay [3]; in assay [4]; in assay [5]) was “Not Active” throughout. In addition, the Ki result in assay [2] is recorded as “Not Active”.

`CCC1(CCC(C)C)C(=O)NC(=O)NC1=O` [AMOBARBITAL]: the IC50 result (in assay [1]; against Cannabinoid receptor 1; in assay [2]; in assay [3]; in assay [4]; in assay [5]) was “Not Active” in each case. Further, the inhibitory constant (Ki) entry in assay [2] was “Not Active”.

Consider `COc1ccc2[nH]cc(CCNC(C)=O)c2c1` [MELATONIN], for which the IC50 entry (in assay [1]; at Cannabinoid receptor 1; in assay [2]; in assay [3]; in assay [4]; in assay [5]) was “Not Active” throughout. In addition, in assay [2], the Ki result was “Not Active”.

With `O=C/C=C/c1ccccc1`, the concentration for half-maximal inhibition (IC50) entry (in assay [1]; against Cannabinoid receptor 1; in assay [2]; in assay [3]; in assay [4]; in assay [5]) was “Not Active” each time. For the same compound, in assay [2], the inhibition constant Ki entry is listed as “Not Active”.

The record behind these values is ChEMBL document CHEMBL1909046, “DrugMatrix in vitro pharmacology data”.
